In patent publication EP3820512B1, “IMMUNOMODULATING COMPOSITIONS COMPRISING OLIGOSACCHARIDE DERIVATIVES” (priority 2018, dated 2020):
Blank lines part the entries; values can stand above or below the molecule they belong to.

Legend:
TLR2 = biological target: T1, TLR2 (Homo sapiens, UniProt O60603); assay: TLR2 activity in PMA-stimulated THP-1 monocyte cells, ELISA of cell lysate; type: cell-based; details: THP-1 cells
T1 construct: endogenous in cells; host or cells: THP-1 monocyte cells stimulated with PMA
Description: THP-1 monocyte cells (1×10^5) were stimulated with 200nM of PMA for 48h and treated with different concentrations of test compounds. The TLR2 activity was measured after 24 h from the cell lysate using ELISA.

[1] = tested on: THP-1 (human monocytic) cells; assay: Cytokine response (IL-1β, TNF-α, IL-10) of THP-1 cells treated with compounds; type: cell-based; details: 100-200 µM
Description: When THP-1 (human monocytic) cells were treated with 100-200 µM of compounds 8, 14, 17, 23, 29, and 32, they produced an increased IL-1β and TNF-α response, decreased anti-inflammatory cytokine IL-10 (FIG. 4).

[2] = tested on: normal lung epithelial cells (AT-1); type: cell-based, human; details: 1 mM and 2 mM, 48h, trypan blue
Description: The cells were treated with compounds and incubated for 48h.

TLR4 = TLR4 (Homo sapiens, UniProt O00206); assay: TLR4 inhibitory and activating activity in THP-1 cells at low and high concentrations; type: cell-based; parameters: endogenous in cells; host or cells: THP-1 (human monocytic) cells
[3] = tested on: human peripheral blood monocytes; assay: IL-10 production in human peripheral blood monocytes; type: cell-based; details: after 48 h
hPBMC = assay: Cytotoxicity in hPBMC, MTT cell proliferation kit; type: cell-based, human; details: 0.1, 1.0, 10, 100 and 1000 µM, 24h
Description: The cells were treated with compounds and incubated for 24h. Cell viability was assessed using MTT cell proliferation kit (Promega).

HUVECs = assay: Cytotoxicity in HUVECs, MTT cell proliferation kit; type: cell-based, human; details: 100 µM, 24h
Description: Selected TLR2/4 antagonist compounds 2, 6, 7, 8, 14, 17 and 32 were evaluated for cytotoxicity in HUVECs at 100 µM concentration. The cells were treated with compounds and incubated for 24h. Cell viability was assessed using MTT cell proliferation kit (Promega). All the compounds were not toxic to HUVECs (FIG. 15).

[4] = tested on: VEGF induced tube formation in HUVECs; assay: Anti-angiogenic activity, Tube Formation kit, VEGF induced; type: cell-based, human; details: VEGF 100ng/mL
Description: Selected TLR2/4 antagonist compounds 2, 6, 7, 8, 14, 17 and 32 were evaluated for anti-angiogenic activity using the Tube Formation kit (Cat#3470-096-K). VEGF (100ng/mL) was used as positive control. These compounds have potential applications in diseases associated with pathological angiogenesis such as solid tumor, […], diabetic retinopathy as well as AMD.

[5] = tested on: hyperoxia induced BPD in mouse pups; assay: Hyperoxia-exposed BPD mouse model (newborn pups); type: in vivo
Text: Neonatal mice and humans undergo similar stages of lung development but differ with respect to the duration of each stage and its temporal relationship to gestational age. The lungs of the mouse born at term are in the saccular stage and are surfactant sufficient; this can be considered somewhat akin to a human preterm neonate in the same stage of lung development that has been exposed to a full complement of antenatal steroids (which is known to enhance surfactant production). In terms of mimicking the human condition, the most successful hyperoxia models are those that limit exposure to hyperoxia to the saccular stage of pulmonary development. The mouse BPD model involves exposing newborn mice (postnatal day 1 or PN1) to 100% oxygen till PN4 followed by recovery in room air (RA) for another 10 days.
After the recovery period, their lungs were harvested and processed for quantitative PCR, western blotting, histopathology and ELISA.
After the recovery period, their lungs were harvested and processed for quantitative PCR, western blotting and histopathology and ELISA.
BPD is characterized by large simplified alveoli, inflammation, increased cell death, decreased cell proliferation, dysmorphic capillary configuration, and variable interstitial cellularity and/or fibroproliferation. […] This is determined by measuring the alveolar chord length, septal thickness and radial alveolar count (RAC). In BPD, the alveolar area increases which is characterized by increase in the diameter of the alveolar sacs, the septa become thickened (thus interfering in gaseous exchange) and the RAC, a parameter used to assess the complexity of terminal respiratory unit by pulmonologists, decreases as a result of arrested lung development.

[6] = Concentration 75-100 µM, THP-1 cells

TLR4, sequence (O00206 24-839): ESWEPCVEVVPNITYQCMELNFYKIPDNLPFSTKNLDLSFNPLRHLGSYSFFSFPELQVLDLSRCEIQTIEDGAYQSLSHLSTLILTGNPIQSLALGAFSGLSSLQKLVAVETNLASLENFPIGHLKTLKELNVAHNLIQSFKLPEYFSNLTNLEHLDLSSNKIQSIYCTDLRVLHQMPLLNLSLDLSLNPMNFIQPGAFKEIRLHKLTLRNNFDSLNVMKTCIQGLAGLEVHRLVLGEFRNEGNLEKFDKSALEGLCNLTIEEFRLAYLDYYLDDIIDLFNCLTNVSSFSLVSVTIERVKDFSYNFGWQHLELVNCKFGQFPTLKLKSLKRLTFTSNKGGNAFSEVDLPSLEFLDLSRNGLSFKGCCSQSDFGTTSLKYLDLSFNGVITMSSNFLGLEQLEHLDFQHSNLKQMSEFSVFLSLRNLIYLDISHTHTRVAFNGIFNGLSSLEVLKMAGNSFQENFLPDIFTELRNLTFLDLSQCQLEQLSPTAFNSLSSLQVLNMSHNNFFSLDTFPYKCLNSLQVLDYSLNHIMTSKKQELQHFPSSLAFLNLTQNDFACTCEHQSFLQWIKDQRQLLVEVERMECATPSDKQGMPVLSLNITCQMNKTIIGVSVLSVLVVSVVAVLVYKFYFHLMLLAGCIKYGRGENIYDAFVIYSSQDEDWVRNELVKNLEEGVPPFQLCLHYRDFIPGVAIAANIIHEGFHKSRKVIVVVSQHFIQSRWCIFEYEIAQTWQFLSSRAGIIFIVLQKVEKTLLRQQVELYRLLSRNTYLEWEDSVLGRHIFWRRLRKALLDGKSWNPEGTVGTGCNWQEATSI
TLR4, sequence (Q9Y6Y9 17-160 partner limits assumed): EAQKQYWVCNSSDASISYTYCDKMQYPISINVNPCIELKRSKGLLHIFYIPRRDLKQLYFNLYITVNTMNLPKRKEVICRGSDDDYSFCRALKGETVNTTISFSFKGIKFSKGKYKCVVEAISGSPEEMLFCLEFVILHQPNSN
T1 sequence (O60603 21-784): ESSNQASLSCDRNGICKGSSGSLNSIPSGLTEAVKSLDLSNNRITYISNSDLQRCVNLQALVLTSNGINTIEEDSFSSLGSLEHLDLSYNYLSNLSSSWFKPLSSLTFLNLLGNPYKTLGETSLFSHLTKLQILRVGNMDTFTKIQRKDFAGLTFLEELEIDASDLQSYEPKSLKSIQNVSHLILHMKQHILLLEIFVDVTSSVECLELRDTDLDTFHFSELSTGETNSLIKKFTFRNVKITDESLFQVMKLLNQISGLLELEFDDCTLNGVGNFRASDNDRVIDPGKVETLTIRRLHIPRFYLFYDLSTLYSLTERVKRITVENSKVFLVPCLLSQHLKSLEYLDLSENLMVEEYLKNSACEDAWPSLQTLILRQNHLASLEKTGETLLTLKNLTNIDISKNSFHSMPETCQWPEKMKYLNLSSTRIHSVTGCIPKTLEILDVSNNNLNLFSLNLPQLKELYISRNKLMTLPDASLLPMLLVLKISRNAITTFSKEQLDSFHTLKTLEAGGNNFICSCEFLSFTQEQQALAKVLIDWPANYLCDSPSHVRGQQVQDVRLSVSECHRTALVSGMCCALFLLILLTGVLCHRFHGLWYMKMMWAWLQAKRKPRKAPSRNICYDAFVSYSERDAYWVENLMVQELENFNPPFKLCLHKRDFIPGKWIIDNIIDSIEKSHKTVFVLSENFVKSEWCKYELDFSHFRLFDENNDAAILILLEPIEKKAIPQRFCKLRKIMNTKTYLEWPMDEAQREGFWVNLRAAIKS

SMILES: CC(=O)NC1[C@H](Oc2ccc3c(C)cc(=O)oc3c2)O[C@H](CO)[C@@H](O)[C@@H]1O (single isomer, unassigned) [Compound 29]
% activation over control TLR2 (TLR2; Concentration 1-10 µM): ++ (++ means that the % of inhibition or activation is in the range of 25-75%) | % activation over control TLR2 (TLR2; Concentration 75-100 µM): + (+ means that the % of inhibition or activation is in the range of 15-25%) | IL-1β response [1]: increased | TNF-α response [1]: increased | anti-inflammatory cytokine IL-10 [1]: decreased | cytotoxicity in normal lung epithelial cells (AT-1) [2]: not toxic | % activation over control TLR4 (TLR4; [6]): + (+ means that the % of inhibition or activation is in the range of 15-25%)

TLR2/4 antagonist activity (TLR4; summary in words, as shown in Table-1 (FIG. 1), TLR2 and TLR4): potent TLR2/4 antagonists
SMILES: CC(=O)NC1[C@H](Oc2ccc(B3OC(C)(C)C(C)(C)O3)cc2)O[C@H](CO)[C@@H](O)[C@@H]1O (single isomer, unassigned) [Compound 32, p-Pinacoloneboronatephenyl 2-acetamido-2-deoxy-β-D-glucopyranoside]
% inhibition over control TLR2 (TLR2; Concentration 1-10 µM): +++ (+++ means that the % of inhibition or activation is in the range of 75-95%) | % inhibition over control TLR2 (TLR2; Concentration 75-100 µM): + (+ means that the % of inhibition or activation is in the range of 15-25%) | IL-1β response [1]: increased | TNF-α response [1]: increased | anti-inflammatory cytokine IL-10 [1]: decreased | IL-10 production ([3]; 0.1-1.0 µM): increase | IL-10 production ([3]; 10-100 µM): decrease | cytotoxicity in hPBMC (cell viability) (hPBMC): not toxic | cytotoxicity in HUVECs (cell viability) (HUVECs): not toxic | VEGF induced tube formation [4]: significantly decreased | TLR4 inhibition in vivo ([5]; neonatal pups with BPD): inhibit | lung architecture ([5]; saline (IV) and nanosuspension (IN) formulation): restored | % inhibition over control TLR4 (TLR4; Concentration 1-10 µM, THP-1 cells): +++ (+++ means that the % of inhibition or activation is in the range of 75-95%) | % inhibition over control TLR4 (TLR4; [6]): +++ (+++ means that the % of inhibition or activation is in the range of 75-95%) | TLR4 modulatory activity (TLR4; summary in words): concentration dependent TLR4 modulatory activity

SMILES: CC(=O)O[C@H]1C(=O)[C@@]2(C)[C@H]([C@H](OC(=O)c3ccccc3)[C@]3(O)C[C@H](OC(=O)[C@H](O)[C@@H](NC(=O)c4ccccc4)c4ccccc4)C(C)=C1C3(C)C)[C@]1(OC(C)=O)CO[C@@H]1C[C@@H]2O [Taxol, reference compound]
cytotoxicity in normal lung epithelial cells (AT-1) [2]: toxic
